Measurements taken from paper PMC4580410, “Characterization of Kbot21 Reveals Novel Side Chain Interactions of Scorpion Toxins Inhibiting Voltage-Gated Potassium Channels” (PLoS ONE, 2015).
Where a SMILES comes first, the peptide text is derived from it. Bridges are numbered along the chain shown (N, C = ends).

How the values were obtained:
[1] = test system: C57/ Bl/6 mice; settings: literature value for comparison; cited from earlier work
Description: We injected increasing doses, from 0.8 to 25 ng, of Kbot21 to two sets of C57bL/6 mice containing each six individuals by i.c.v. The LD50 value corresponds to […] or 1μg/kg body weight which is 5 times to other LD50 values of some scorpion peptides, such as Maurotoxin, well characterized for their activity on potassium channels (LD50 = 100 ng).

[2] = test system: hKV1.3; assay: Two-electrode voltage-clamp, Xenopus oocytes expressing hKV1.3; type: cell-based, human; settings: 1 μM toxin, TEVC, n ≥ 3
Description: (§1) For the expression of the VGPCs (rKV1.1, rKV1.2, hKV1.3, rKV1.4, rKV1.6, Shaker IR, rKV2.1) in Xenopus oocytes, the linearized plasmids were transcribed using the T7 or SP6 mMESSAGE-mMACHINE transcription kit (Ambion, USA). The harvesting of stage V-VI oocytes from anaesthetized female Xenopus laevis frog was previously described. Oocytes were injected with 50 nl of cRNA at a concentration of 1 ng/nl using a micro-injector (Drummond Scientific, USA). The oocytes were incubated in ND96 solution containing (in mM): NaCl, 96; KCl, 2; CaCl2, 1.8; MgCl2, 2 and HEPES, 5 (pH 7.4), supplemented with 50 mg/l gentamycin sulfate. The use of the frogs was in accordance with the license number LA1210239.
(§2) Two-electrode voltage-clamp recordings were performed at room temperature (18–22°C) using a Geneclamp 500 amplifier (Molecular Devices, USA) controlled by a pClamp data acquisition system (Axon Instruments, USA). Whole cell currents from oocytes were recorded 1–4 days after injection. Bath solution composition was ND96 (in mM): NaCl, 96; KCl, 2; CaCl2, 1.8; MgCl2, 2 and HEPES, 5 (pH 7.4). Voltage and current electrodes were filled with 3 M KCl. Resistances of both electrodes were kept between 0.7–1.5 MΩ. The elicited currents were filtered at 1 kHz and sampled at 500 Hz using a four-pole low-pass Bessel filter. Leak subtraction was performed using a-P/4 protocol. […]

[3] = test system: rKV2.1; assay: Two-electrode voltage-clamp, Xenopus oocytes expressing rKV2.1; type: cell-based, rat; settings: 1 μM toxin, TEVC, n ≥ 3
Description: as §1, §2

[4] = test system: rKV1.2; assay: Two-electrode voltage-clamp, Xenopus oocytes expressing rKV1.2; type: cell-based, rat; settings: 1 μM toxin, TEVC, n ≥ 3
Description: as §1, §2

[5] = test system: rKV1.1; assay: Two-electrode voltage-clamp, Xenopus oocytes expressing rKV1.1; type: cell-based, rat; settings: 1 μM toxin, TEVC, n ≥ 3
Description: as §1, §2

[6] = target: T1, rKV1.6 (Rattus norvegicus, UniProt P17659); assay: Two-electrode voltage-clamp, Xenopus oocytes expressing rKV1.6; type: cell-based
T1 construct: expressed in transfected cells; host or cells: Xenopus laevis oocytes injected with cRNA
T1 sequence (P17659 whole entry): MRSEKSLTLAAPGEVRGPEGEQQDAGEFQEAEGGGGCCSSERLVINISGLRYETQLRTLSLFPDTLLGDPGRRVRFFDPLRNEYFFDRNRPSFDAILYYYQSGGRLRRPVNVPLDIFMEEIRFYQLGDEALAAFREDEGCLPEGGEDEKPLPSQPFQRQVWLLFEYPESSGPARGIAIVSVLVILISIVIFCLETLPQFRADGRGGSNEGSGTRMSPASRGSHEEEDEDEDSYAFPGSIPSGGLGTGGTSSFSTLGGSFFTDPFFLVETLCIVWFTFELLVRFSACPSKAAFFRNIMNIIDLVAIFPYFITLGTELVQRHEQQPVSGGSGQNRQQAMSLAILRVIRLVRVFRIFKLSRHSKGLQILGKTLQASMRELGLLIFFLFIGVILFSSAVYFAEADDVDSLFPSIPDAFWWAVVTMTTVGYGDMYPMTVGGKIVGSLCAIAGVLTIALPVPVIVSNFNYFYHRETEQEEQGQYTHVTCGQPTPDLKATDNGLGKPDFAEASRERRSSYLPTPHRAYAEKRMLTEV
Description: as §1
Two-electrode voltage-clamp recordings were performed at room temperature (18–22°C) using a Geneclamp 500 amplifier (Molecular Devices, USA) controlled by a pClamp data acquisition system (Axon Instruments, USA). Whole cell currents from oocytes were recorded 1–4 days after injection. Bath solution composition was ND96 (in mM): NaCl, 96; KCl, 2; CaCl2, 1.8; MgCl2, 2 and HEPES, 5 (pH 7.4). Voltage and current electrodes were filled with 3 M KCl. Resistances of both electrodes were kept between 0.7–1.5 MΩ. The elicited currents were filtered at 1 kHz and sampled at 500 Hz using a four-pole low-pass Bessel filter. Leak subtraction was performed using a-P/4 protocol. KV1.1-KV1.6 and Shaker IR currents were evoked by 500 ms depolarizations to 0 mV followed by a 500 ms pulse to -50 mV, from a holding potential of -90 mV. In order to investigate the current-voltage relationship, current traces were evoked by 10 mV depolarization steps from a holding potential of -90 mV. All data represent at least 3 independent experiments (n ≥ 3) and are presented as mean ± standard error.

[7] = test system: Shaker IR; assay: Two-electrode voltage-clamp, Xenopus oocytes expressing Shaker IR; type: cell-based, insect; settings: 1 μM toxin, TEVC, n ≥ 3
Description: as §1, §2

[8] = test system: rKV1.4; assay: Two-electrode voltage-clamp, Xenopus oocytes expressing rKV1.4; type: cell-based, rat; settings: 1 μM toxin, TEVC, n ≥ 3
Description: as §1, §2

Row | Molecule | LD50 [1] [ng] | Inhibition of potassium current [2] | Inhibition of potassium current [3] | Inhibition of potassium current [4] | Inhibition of potassium current [5] | Reversibility of Kv1.6 block upon washout ([6]; 500 nM toxin, current recovered quickly and completely upon washout, n = 3) | Inhibition of potassium current ([6]; 1 μM toxin, Xenopus oocytes, TEVC, n ≥ 3) | V1/2 (midpoint of activation) ([6]; after application of 100 nM Kbot21, control 8.5 ± 0.9 mV, n ≥ 3, mean ± standard error, SEM) [mV] | Hill coefficient ([6]; concentration-response curve on Kv1.6, mean ± standard error, n ≥ 3, SEM) | Inhibition of Shaker IR current [7] [%] | Inhibition of potassium current [8]
1 | Maurotoxin: scorpion peptide well characterized for activity on potassium channels (VSCTGSKDCYAPCRKQTGCPNAKCINKSCKCYGC; UniProt P80719 1-34, looked up) | 100 |  |  |  |  |  |  |  |  |  | 
2 | CC[C@H](C)[C@@H]1NC(=O)[C@@H]2CSSC[C@H](NC(=O)[C@H](C)NC(=O)[C@H](C)N)C(=O)N[C@@H](Cc3ccc(O)cc3)C(=O)N[C@@H](CO)C(=O)N[C@@H](CO)C(=O)N[C@@H](CC(=O)O)C(=O)N[C@H]3CSSC[C@H](NC(=O)[C@H](CCCCN)NC(=O)[C@H](CO)NC(=O)[C@H](CC(=O)O)NC1=O)C(=O)N[C@@H](CCCCN)C(=O)N[C@H](C(=O)N[C@@H](Cc1ccc(O)cc1)C(=O)N[C@@H](CCCCN)C(=O)O)CSSC[C@H](NC(=O)[C@H](CCCCN)NC(=O)[C@H](C(C)C)NC(=O)[C@H](CCCNC(=N)N)NC3=O)C(=O)N[C@@H](CCCNC(=N)N)C(=O)N[C@@H](C)C(=O)N[C@@H](CCSC)C(=O)NCC(=O)N[C@@H](Cc1ccccc1)C(=O)N[C@@H](CO)C(=O)N[C@@H](CO)C(=O)NCC(=O)N[C@@H](CCCCN)C(=O)N2 [Kbot21] (H-AACYSSDCRVKCRAMGFSSGKCIDSKCKCYK-OH; disulfide 3-22, 8-27, 12-29 (inferred); N-terminus and C-terminus assumed) |  | completely inhibited | failed to exert any activity | completely inhibited | completely inhibited | reversible | completely inhibited | 6.9 ± 2.9 | 1.1 ± 0.1 | 65 | failed to exert any activity
